Experimental data taken from ChEMBL document CHEMBL6121063, “Identification of a Potent and Selective CDK9 Degrader as a Targeted Therapeutic Option for the Treatment of Small-Cell Lung Cancer” (J Med Chem, 2025).
In brackets after ≈: the same amount, converted by molar mass.

Legend:
[1] = biological target: T1, Protein cereblon/Cyclin-dependent kinase 9 (Homo sapiens, UniProt P50750+Q96SW2); experiment: PROTAC activity at CRBN/CDK9 in human NCI-H69 cells assessed as induction of CDK9 degradation at 10 nM by Western blot analysis relative to control; assay type: cell-based
Target sequence in this assay (P50750 whole entry, looked up): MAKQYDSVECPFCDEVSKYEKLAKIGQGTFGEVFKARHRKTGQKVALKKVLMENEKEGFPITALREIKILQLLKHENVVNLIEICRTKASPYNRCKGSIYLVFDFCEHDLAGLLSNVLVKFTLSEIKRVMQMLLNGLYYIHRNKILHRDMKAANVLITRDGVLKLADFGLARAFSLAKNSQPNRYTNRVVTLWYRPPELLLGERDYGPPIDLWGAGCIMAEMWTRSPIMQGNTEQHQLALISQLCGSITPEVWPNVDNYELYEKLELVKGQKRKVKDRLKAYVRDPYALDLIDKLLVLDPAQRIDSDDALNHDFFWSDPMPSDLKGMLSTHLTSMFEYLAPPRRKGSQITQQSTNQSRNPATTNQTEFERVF
Target sequence in this assay (Q96SW2 whole entry, looked up): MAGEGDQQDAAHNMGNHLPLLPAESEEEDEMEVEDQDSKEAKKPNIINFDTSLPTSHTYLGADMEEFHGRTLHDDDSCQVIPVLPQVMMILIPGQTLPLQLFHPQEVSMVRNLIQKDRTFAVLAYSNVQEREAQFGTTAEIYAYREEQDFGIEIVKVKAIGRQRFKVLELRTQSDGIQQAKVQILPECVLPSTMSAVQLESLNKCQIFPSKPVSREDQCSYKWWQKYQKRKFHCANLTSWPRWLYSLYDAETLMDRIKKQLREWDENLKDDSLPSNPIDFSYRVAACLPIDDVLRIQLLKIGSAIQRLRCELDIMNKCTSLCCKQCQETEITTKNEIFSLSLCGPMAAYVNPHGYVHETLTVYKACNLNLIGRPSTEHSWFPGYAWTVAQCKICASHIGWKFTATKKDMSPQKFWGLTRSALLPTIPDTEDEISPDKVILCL

[2] = test system: NCI-H69; experiment: Antiproliferative activity against human NCI-H69 cells assessed as inhibition of cell growth incubated for 72 hrs by CCK8 assay; assay type: functional, cell-based; details: NCI-H69, 72 h
[3] = biological target: T1, Protein cereblon/Cyclin-dependent kinase 9; experiment: PROTAC activity at CRBN/CDK9 in human NCI-H446 cells assessed as induction of CDK9 degradation at 10 nM by Western blot analysis relative to control; assay type: cell-based
Target sequence in this assay (P50750 whole entry, looked up): as the sequence (P50750 whole entry, looked up) above
Target sequence in this assay (Q96SW2 whole entry, looked up): as the sequence (Q96SW2 whole entry, looked up) above

[4] = test system: NCI-H446; experiment: Antiproliferative activity against human NCI-H446 cells assessed as inhibition of cell growth incubated for 72 hrs by CCK8 assay; assay type: functional, cell-based; details: NCI-H446, 72 h
[5] = biological target: T1, Protein cereblon/Cyclin-dependent kinase 9; experiment: PROTAC activity at CRBN/CDK9 in human NCI-H69 cells assessed as induction of CDK9 degradation incubated for 8 hrs by Western blot analysis; assay type: cell-based
Target sequence in this assay (P50750 whole entry): as the sequence (P50750 whole entry, looked up) above
Target sequence in this assay (Q96SW2 whole entry): as the sequence (Q96SW2 whole entry, looked up) above

[6] = Metabolic stability in mouse liver microsomes assessed as parent compound remaining measured after 60 mins; assay type: ADME, Microsome; details: read-out: Stability
[7] = Metabolic stability in mouse liver microsomes assessed as half-life; assay type: ADME, Microsome; details: for half-life: liver microsomes
[8] = Metabolic stability in mouse liver microsomes assessed as intrinsic clearance; assay type: ADME, Microsome; details: for microsomal CLint: liver microsomes, read-out: CLH
[9] = Metabolic stability in human liver microsomes assessed as parent compound remaining measured after 60 mins; assay type: ADME, Microsome; details: read-out: Stability
[10] = Metabolic stability in human liver microsomes assessed as half-life; assay type: ADME, Microsome; details: for half-life: liver microsomes
[11] = Metabolic stability in human liver microsomes assessed as intrinsic clearance; assay type: ADME, Microsome; details: for microsomal CLint: liver microsomes, read-out: CLH
[12] = Apparent permeability across apical to basolateral side in human Caco-2 cells at 2 uM measured after 60 mins by HPLC analysis; assay type: ADME, cell-based
[13] = Apparent permeability across basolateral to apical side in human Caco-2 cells at 2 uM measured after 60 mins by HPLC analysis; assay type: ADME, cell-based
[14] = Efflux ratio of apparent permeability across basolateral to apical over apical to basolateral side in human Caco-2 cells at 2 uM measured after 60 mins by HPLC analysis; assay type: ADME, cell-based
[15] = Kinetic solubility of compound in FeSSIF buffer incubated for 2 hrs by LC-MS/MS analysis; assay type: physicochemical; details: read-out: Kinetic_solubility

## O=C1CCC(N2C(=O)c3ccc(N4CCN(C(=O)CCC(=O)N5CCC(NC(=O)c6n[nH]cc6NC(=O)c6c(Cl)cccc6Cl)CC5)CC4)cc3C2=O)C(=O)N1 (stereo unspecified)
[1]
  Activity: 39.1%
[2]
  IC50: 42.5 nM
[3]
  Activity: 31.8%
[4]
  IC50: 31.7 nM

## O=C1CCC(N2C(=O)c3ccc(N4CCC(OC(=O)CN5CCC(NC(=O)c6n[nH]cc6NC(=O)c6c(Cl)cccc6Cl)CC5)CC4)cc3C2=O)C(=O)N1 (stereo unspecified)
[1]
  Activity: 25.2%
[2]
  IC50: 268 nM
[3]
  Activity: 18.6%
[4]
  IC50: > 1000 nM

## O=C1CCC(N2C(=O)c3ccc(N4CCN(C(=O)CCCC(=O)N5CCC(NC(=O)c6n[nH]cc6NC(=O)c6c(Cl)cccc6Cl)CC5)CC4)cc3C2=O)C(=O)N1 (stereo unspecified)
[1]
  Activity: 3.8%
[2]
  IC50: 261 nM
[3]
  Activity: 3.22%
[4]
  IC50: 352 nM

## O=C1CCC(N2C(=O)c3ccc(N4CCN(CC5CCN(CC(=O)N6CCC(NC(=O)c7n[nH]cc7NC(=O)c7c(Cl)cccc7Cl)CC6)CC5)CC4)cc3C2=O)C(=O)N1 (stereo unspecified)
[1]
  Activity: 89.1%
[2]
  IC50: 1.3 nM
[3]
  Activity: 83.9%
[4]
  IC50: 2.6 nM
[5]
  DC50: 3.8 nM
[6]
  remaining at 1 h: 71.9%
[7]
  half-life: 126 min
[8]
  microsomal CLint: 11 µL/min/mg
[9]
  remaining at 1 h: 24.3%
[10]
  half-life: 30.4 min
[11]
  microsomal CLint: 46 µL/min/mg
[12]
  Papp A→B at 1 h, 2 µM: 0.326 ×10⁻⁶ cm/s
[13]
  Papp B→A at 1 h, 2 µM: 5.27 ×10⁻⁶ cm/s
[14]
  efflux ratio at 1 h, 2 µM: 16.2
[15]
  solubility kinetic at 2 h: 9.08 µM (≈ 7.83 µg/mL)

## Cc1ncc2n1-c1ccc(Cl)cc1C(c1ccccc1F)=NC2 [MIDAZOLAM]
[7]; microsomes
  t1/2: 2.72 min
[8]; microsomes
  CLH: 1270 µL/min/mg
[10]; microsomes
  t1/2: 2.9 min
[11]; microsomes
  CLH: 1200 µL/min/mg

## O=C(O)Cc1ccccc1Nc1c(Cl)cccc1Cl [DICLOFENAC]
[15]
  solubility kinetic at 2 h: 316 µM (≈ 93.6 µg/mL)

## O=C1CCC(N2C(=O)c3ccc(N4CCN(CC5CCN(C(=O)CN6CCC(NC(=O)c7n[nH]cc7NC(=O)c7c(Cl)cccc7Cl)CC6)CC5)CC4)cc3C2=O)C(=O)N1 (stereo unspecified)
[1]
  Activity: 88.4%
[2]
  IC50: 6.46 nM
[3]
  Activity: 78.2%
[4]
  IC50: 3.7 nM
[5]
  DC50: 4.5 nM
[6]
  remaining at 1 h: 61.2%
[7]
  half-life: 84.5 min
[8]
  microsomal CLint: 16.4 µL/min/mg
[9]
  remaining at 1 h: 3.2%
[10]
  half-life: 6.17 min
[11]
  microsomal CLint: 225 µL/min/mg

## CC(C)NCC(O)COc1cccc2ccccc12 (stereo unspecified) [PROPRANOLOL]
[12]
  Papp A→B at 1 h, 2 µM: 9.64 ×10⁻⁶ cm/s
[13]
  Papp B→A at 1 h, 2 µM: 15.4 ×10⁻⁶ cm/s
[14]
  efflux ratio at 1 h, 2 µM: 1.6

## O=C(CNc1cccc2c1C(=O)N(C1CCC(=O)NC1=O)C2=O)NCCCCCCCCCCC(=O)N1CCC(NC(=O)c2n[nH]cc2NC(=O)c2c(Cl)cccc2Cl)CC1 (stereo unspecified)
[1]
  Activity: 21.8%
[2]
  IC50: 161 nM
[3]
  Activity: 27.9%
[4]
  IC50: 148 nM

## O=C1CCC(N2C(=O)c3ccc(N4CCN(C(=O)CN5CCC(NC(=O)c6n[nH]cc6NC(=O)c6c(Cl)cccc6Cl)CC5)CC4)cc3C2=O)C(=O)N1 (stereo unspecified)
[1]
  Activity: 44.2%
[2]
  IC50: 53.8 nM
[3]
  Activity: 51.9%
[4]
  IC50: 17.9 nM

## O=C1CCC(N2C(=O)c3ccc(N4CC5CN(CC(=O)N6CCC(NC(=O)c7n[nH]cc7NC(=O)c7c(Cl)cccc7Cl)CC6)CC5C4)cc3C2=O)C(=O)N1 (stereo unspecified)
[1]
  Activity: 49.4%
[2]
  IC50: 142 nM
[3]
  Activity: 38.9%
[4]
  IC50: 156 nM

## O=C1CCC(Nc2ccc(N3CCN(CC4CCN(CC(=O)N5CCC(NC(=O)c6n[nH]cc6NC(=O)c6c(Cl)cccc6Cl)CC5)CC4)CC3)c(F)c2)C(=O)N1 (stereo unspecified)
[1]
  Activity: 66.1%
[2]
  IC50: 44.2 nM
[3]
  Activity: 79.3%
[4]
  IC50: 56.1 nM

## Cl.O=C1CCC(Nc2cccc(N3CCN(CC4CCN(CC(=O)N5CCC(NC(=O)c6n[nH]cc6NC(=O)c6c(Cl)cccc6Cl)CC5)CC4)CC3)c2)C(=O)N1 (stereo unspecified)
[15]
  solubility kinetic at 2 h: 290 µM

## O=C1CCC(N2C(=O)c3cccc(NCCCCCC(=O)N4CCC(NC(=O)c5n[nH]cc5NC(=O)c5c(Cl)cccc5Cl)CC4)c3C2=O)C(=O)N1 (stereo unspecified)
[1]
  Activity: 17.1%
[2]
  IC50: > 1000 nM
[3]
  Activity: 27.1%
[4]
  IC50: > 1000 nM

## O=C1CCC(N2C(=O)c3cccc(NCCCCCCC(=O)N4CCC(NC(=O)c5n[nH]cc5NC(=O)c5c(Cl)cccc5Cl)CC4)c3C2=O)C(=O)N1 (stereo unspecified)
[1]
  Activity: 0.132%
[2]
  IC50: > 1000 nM
[3]
  Activity: 11.2%
[4]
  IC50: > 1000 nM

## O=C1CCC(N2C(=O)c3cccc(NCCCCCN4CCC(NC(=O)c5n[nH]cc5NC(=O)c5c(Cl)cccc5Cl)CC4)c3C2=O)C(=O)N1 (stereo unspecified)
[1]
  Activity: 8.01%
[2]
  IC50: 217 nM
[3]
  Activity: 12.8%
[4]
  IC50: 136 nM

## O=C1CCC(N2C(=O)c3cccc(NCCCCCCCN4CCC(NC(=O)c5n[nH]cc5NC(=O)c5c(Cl)cccc5Cl)CC4)c3C2=O)C(=O)N1 (stereo unspecified)
[1]
  Activity: 10.6%
[2]
  IC50: 179 nM
[3]
  Activity: 21.3%
[4]
  IC50: 62.9 nM

## O=C1CCC(Nc2ccc(N3CCN(CC4CCN(CC(=O)N5CCC(NC(=O)c6n[nH]cc6NC(=O)c6c(Cl)cccc6Cl)CC5)CC4)CC3)cc2)C(=O)N1 (stereo unspecified)
[1]
  Activity: 88.9%
[2]
  IC50: 11 nM
[3]
  Activity: 74.1%
[4]
  IC50: 35.3 nM
[5]
  DC50: 5.67 nM
[6]
  remaining at 1 h: 72%
[7]
  half-life: 136 min
[8]
  microsomal CLint: 10.2 µL/min/mg
[9]
  remaining at 1 h: 64.7%
[10]
  half-life: 58.8 min
[11]
  microsomal CLint: 26 µL/min/mg

## O=C1CCC(N2C(=O)c3ccc(N4CCN(CC(=O)N5CCC(NC(=O)c6n[nH]cc6NC(=O)c6c(Cl)cccc6Cl)CC5)CC4)cc3C2=O)C(=O)N1 (stereo unspecified)
[1]
  Activity: 45.5%
[2]
  IC50: 726 nM
[3]
  Activity: 30.9%
[4]
  IC50: 349 nM

## O=C1CCC(N2C(=O)c3cccc(NCCCCC(=O)N4CCC(NC(=O)c5n[nH]cc5NC(=O)c5c(Cl)cccc5Cl)CC4)c3C2=O)C(=O)N1 (stereo unspecified)
[1]
  Activity: 3.91%
[2]
  IC50: > 1000 nM
[3]
  Activity: 9.92%
[4]
  IC50: 772 nM

## O=C1CCC(N2C(=O)c3ccc(N4CCN(CC(=O)N5CCC(CN6CCC(NC(=O)c7n[nH]cc7NC(=O)c7c(Cl)cccc7Cl)CC6)CC5)CC4)cc3C2=O)C(=O)N1 (stereo unspecified)
[1]
  Activity: 86.1%
[2]
  IC50: 4.82 nM
[3]
  Activity: 81.3%
[4]
  IC50: 2.01 nM
[5]
  DC50: 8.97 nM
[6]
  remaining at 1 h: 61.1%
[7]
  half-life: 85.6 min
[8]
  microsomal CLint: 16.2 µL/min/mg
[9]
  remaining at 1 h: 1.2%
[10]
  half-life: 4.75 min
[11]
  microsomal CLint: 292 µL/min/mg

## CN1C(=O)CCC(Nc2cccc(N3CCN(CC4CCN(CC(=O)N5CCC(NC(=O)c6n[nH]cc6NC(=O)c6c(Cl)cccc6Cl)CC5)CC4)CC3)c2)C1=O (stereo unspecified)
[1]
  Activity: 12.3%
[2]
  IC50: 501 nM
[3]
  Activity: 3.15%
[4]
  IC50: 592 nM

## O=C1CCC(N2C(=O)c3cccc(NCCCCCCN4CCC(NC(=O)c5n[nH]cc5NC(=O)c5c(Cl)cccc5Cl)CC4)c3C2=O)C(=O)N1 (stereo unspecified)
[1]
  Activity: 34%
[2]
  IC50: 95.3 nM
[3]
  Activity: 39.4%
[4]
  IC50: 54.2 nM

## O=C1CCC(N2C(=O)c3ccc(N4CCN(C(=O)CN5CCC(CN6CCC(NC(=O)c7n[nH]cc7NC(=O)c7c(Cl)cccc7Cl)CC6)CC5)CC4)cc3C2=O)C(=O)N1 (stereo unspecified)
[1]
  Activity: 51.5%
[2]
  IC50: 5.75 nM
[3]
  Activity: 49.9%
[4]
  IC50: 18.1 nM
